The supplement of paper PMC10307832

Assays:
Test in all cases: relative viability (nuclei count vs DMSO), 5 days (fraction); higher = more cells survive
[1] = compound: OCc1c[nH]c2ccccc12 [Indole-3-carbinol] + CCNC(=O)c1noc(-c2cc(C(C)C)c(O)cc2O)c1-c1ccc(CN2CCOCC2)cc1 [Luminespib] (partner 0.01 µM)
Outline: (§1)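 Relative viability equals treated-well nuclei counts divided by vehicle-well nuclei counts. Counts came from 4× images of lung cancer cell lines grown in 1536-well plates for 5 days after pin-tool dosing on the day after seeding. Dosing used one drug alone or a fixed anchor-drug dose plus five library-drug doses (not always all listed) in √10 steps, and values are medians of duplicate plates.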

[2] = compound: OCc1c[nH]c2ccccc12 [Indole-3-carbinol] + CS(=O)(=O)N1CCN(Cc2cc3nc(-c4cccc5[nH]ncc45)nc(N4CCOCC4)c3s2)CC1 [Pictilisib] (partner 1 µM)
Outline: as §1

[3] = compound: OCc1c[nH]c2ccccc12 [Indole-3-carbinol] + C[C@@H](Oc1cc(-c2cnn(C3CCNCC3)c2)cnc1N)c1c(Cl)ccc(F)c1Cl [Crizotinib] (partner 1 µM)
Outline: as §1

[4] = compound: OCc1c[nH]c2ccccc12 [Indole-3-carbinol] + C[C@]1(O)C[C@@H](c2nc(-c3ccc4ccc(-c5ccccc5)nc4c3)c3c(N)nccn32)C1 [Linsitinib] (partner 1 µM)
Outline: as §1

[5] = compound: OCc1c[nH]c2ccccc12 [Indole-3-carbinol] + N=C(N)NC(=N)NCCc1ccccc1 [Phenformin] (partner 250 µM)
Outline: as §1

Cell Line | relative viability ([1]; first compound 0.8 µM) | relative viability ([1]; first compound 2.53 µM) | relative viability ([1]; first compound 8 µM) | relative viability ([2]; first compound 0.253 µM) | relative viability ([2]; first compound 0.8 µM) | relative viability ([2]; first compound 2.53 µM) | relative viability ([2]; first compound 8 µM) | relative viability ([3]; first compound 0.253 µM) | relative viability ([3]; first compound 0.8 µM) | relative viability ([3]; first compound 2.53 µM) | relative viability ([3]; first compound 8 µM) | relative viability ([4]; first compound 0.253 µM) | relative viability ([4]; first compound 0.8 µM) | relative viability ([4]; first compound 2.53 µM) | relative viability ([4]; first compound 8 µM) | relative viability ([5]; first compound 0.253 µM) | relative viability ([5]; first compound 0.8 µM) | relative viability ([5]; first compound 2.53 µM) | relative viability ([5]; first compound 8 µM) | relative viability ([1]; first compound 0.253 µM)
ABC-1 | 0.696 | 0.803 | 0.509 | 0.755 | 0.786 | 0.782 | 0.66 | 0.973 | 0.925 | 1.39 | 1.33 | 0.931 | 1.04 | 0.82 | 0.706 | 0.254 | 0.238 | 0.265 | 0.259 | –
NCI-H1703 | – | – | – | – | 0.24 | 0.26 | 0.253 | 0.835 | 0.853 | 0.991 | 0.661 | 0.786 | 0.413 | 0.665 | 0.636 | – | – | – | – | –
COR-L 105 | 0.723 | 0.651 | 0.656 | 0.371 | 0.374 | 0.432 | 0.382 | 0.93 | 0.681 | 0.781 | 0.731 | 0.693 | 0.767 | 0.99 | 0.65 | 0.497 | 0.408 | 0.488 | 0.416 | 0.758
LOU-NH91 | 0.342 | 0.306 | 0.356 | 0.488 | 0.472 | 0.539 | 0.57 | 0.771 | 0.61 | 0.71 | 0.714 | 1.01 | 0.899 | 0.937 | 0.943 | 0.783 | 0.708 | 0.725 | 0.699 | 0.369
NCI-H661 | 0.952 | 0.965 | 0.895 | 0.389 | 0.325 | 0.448 | 0.384 | 1.05 | – | 1.16 | 0.977 | 0.542 | 0.378 | 0.623 | 0.676 | 0.281 | 0.253 | 0.272 | 0.266 | 0.922
LU99A | 0.199 | 0.209 | 0.207 | 0.318 | 0.367 | 0.302 | 0.35 | 0.569 | 0.568 | 0.532 | 0.506 | 0.501 | 0.556 | 0.428 | 0.536 | 0.943 | 0.869 | 0.816 | 0.871 | 0.237
NCI-H1650 | – | 0.19 | 0.221 | 0.521 | 0.399 | 0.547 | 0.6 | 0.907 | 1.02 | 1.16 | 0.968 | – | – | – | – | 0.42 | – | 0.462 | 0.356 | 0.167
NCI-H2342 | 0.759 | 0.752 | 0.74 | – | – | – | – | – | – | – | – | – | – | – | – | 0.617 | 0.608 | 0.572 | 0.516 | 0.867
SW 900 | 0.155 | 0.169 | 0.166 | – | – | – | – | – | – | – | – | – | – | – | – | 0.81 | 0.634 | 0.576 | 0.455 | 0.186
NCI-H522 | 1.05 | 1.1 | 0.949 | – | – | – | – | – | – | – | – | – | – | – | – | 0.621 | 0.661 | 0.724 | 0.671 | 1.17
IA-LM | – | – | – | 0.348 | 0.291 | 0.362 | 0.237 | 0.722 | 1.08 | 0.863 | 0.738 | 0.674 | 0.593 | 0.637 | 0.444 | – | – | – | – | –
